Molecular target: T1, α5β3γ2 GABAA receptors (Ltk cells) (Homo sapiens, UniProt P18507+P31644)
T1 construct: membranes
Experiment: Binding activity on GABAAR: inhibition of [3H]Ro15-1788 binding
Details: not given
Procedure: Tissue culture and Membrane Preparation: The binding was performed on Ltk cells stably expressing GABAA receptors: α1β1γ2, α2β3γ2, α3β3γ2 and α5β3γ2 (provided by Merck Co., NJ, USA). Cells were seeded in 100 mm culture plates in DMEM/F12 medium containing 10% serum and antibiotics in 5% CO2 and allowed to grow for 1-2 days. GABAAR expression was then induced by dexamethasone as follows: 0.5 μM for 1 day for α5 containing and 2 μM for 3 days for α1, α2 and α3 containing GABAARs. After induction, cells were collected by scraping into Dulbecco's Phosphate buffered saline (DPBS, pH 7.4, Invitrogen, Carlsbad, Calif., USA) and centrifuged at 150×g for 10 min. The pellet was washed twice by re-suspension and centrifugation. The cell pellets from at least 5 different preps were combined, suspended in the binding assay buffer (50 mM KH2PO4; 1 mM EDTA; 0.2 M KCl, pH 7.4) and membranes prepared by sonication (3-5 times, 30 sec) using Branson Sonifier 150 (G. Heinmann, Germany). Protein content was determined using BCA assay (Bio-Rad Labs, Reinach, Switzerland) with Bovine Serum Albumin (Sigma Aldrich, St. Louis, Mo., USA) as the standard. Aliquots were prepared and stored at −20° C. for further use in binding assays.
Ligand Binding: Saturation binding curves were obtained by incubating membranes with increasing concentrations (0.01-8 nM) of [^3H]Ro15-1788 (Flumazepil, 75-85 Ci/mmol, PerkinElmer, MA, USA), with nonspecific binding measured in the presence of 10 μM diazepam.
All binding assays were performed for 1 h at 4° C. in assay buffer. The total assay volume was 0.5 ml containing 0.2 mg/ml protein for α5 and 0.4 mg/ml for α1, α2, and α3 containing GABAAR membranes. Incubations were terminated by filtration through GF/B filters using a 24-Cell Harvestor (Brandel, Gaithersburg, Md., USA) followed by 3 washes with ice-cold assay buffer. Filters were transferred to scintillation vials, 5 ml scintillation liquid added, vortex-mixed and kept in dark. Next day, radioactivity was obtained using a scintillation counter (Beckman Coulter, Brea, Calif., USA). All assays were performed in triplicate.
Data Analyses: Saturation and inhibition curves were obtained using GraphPad Prism software (GraphPad Software, Inc., CA, USA).

T1 sequence (P31644 32-462): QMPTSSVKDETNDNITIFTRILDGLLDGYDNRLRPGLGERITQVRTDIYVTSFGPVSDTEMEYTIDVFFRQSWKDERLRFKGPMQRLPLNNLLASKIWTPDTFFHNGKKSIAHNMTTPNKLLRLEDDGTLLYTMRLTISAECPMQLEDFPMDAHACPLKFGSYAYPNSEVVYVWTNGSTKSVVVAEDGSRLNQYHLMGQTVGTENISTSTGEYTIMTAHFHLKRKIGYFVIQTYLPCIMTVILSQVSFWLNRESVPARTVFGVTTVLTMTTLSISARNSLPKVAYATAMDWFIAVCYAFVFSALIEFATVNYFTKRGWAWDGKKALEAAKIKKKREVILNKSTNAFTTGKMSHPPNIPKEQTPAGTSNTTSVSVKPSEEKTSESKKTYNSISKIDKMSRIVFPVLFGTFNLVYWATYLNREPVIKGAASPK
T1 sequence (P28472 26-473 partner): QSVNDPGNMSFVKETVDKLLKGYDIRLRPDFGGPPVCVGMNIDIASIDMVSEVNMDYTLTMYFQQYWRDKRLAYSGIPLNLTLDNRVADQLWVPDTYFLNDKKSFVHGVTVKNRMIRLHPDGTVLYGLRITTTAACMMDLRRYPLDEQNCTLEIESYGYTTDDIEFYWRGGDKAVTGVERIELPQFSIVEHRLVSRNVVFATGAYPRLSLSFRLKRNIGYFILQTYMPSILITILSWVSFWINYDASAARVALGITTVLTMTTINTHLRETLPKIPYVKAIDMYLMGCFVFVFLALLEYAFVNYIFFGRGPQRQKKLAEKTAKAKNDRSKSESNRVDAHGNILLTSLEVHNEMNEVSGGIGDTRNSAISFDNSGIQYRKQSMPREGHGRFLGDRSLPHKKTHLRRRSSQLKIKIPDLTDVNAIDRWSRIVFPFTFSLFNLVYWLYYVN
T1 sequence (P18507 40-475): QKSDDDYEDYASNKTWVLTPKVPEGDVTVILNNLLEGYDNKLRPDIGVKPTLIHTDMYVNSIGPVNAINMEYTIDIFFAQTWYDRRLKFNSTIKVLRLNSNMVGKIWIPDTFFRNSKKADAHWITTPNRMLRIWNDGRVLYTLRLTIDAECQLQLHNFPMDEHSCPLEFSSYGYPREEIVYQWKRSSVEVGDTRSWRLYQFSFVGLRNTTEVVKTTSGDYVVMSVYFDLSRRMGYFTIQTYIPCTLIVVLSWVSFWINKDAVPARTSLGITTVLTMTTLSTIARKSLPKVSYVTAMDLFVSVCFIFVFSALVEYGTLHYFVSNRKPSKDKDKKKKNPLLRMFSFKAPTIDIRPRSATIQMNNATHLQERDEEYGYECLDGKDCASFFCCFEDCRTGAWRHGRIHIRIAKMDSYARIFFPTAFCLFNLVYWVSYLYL

Compound | Ki
CCOC(=O)c1ncn2c1Cc1c(Cc3ccc(F)cc3)nnn1-c1cc(F)ccc1-2 [Compound 46] | < 0.099 µM
COCc1nnc2n1Cc1c(C3=NC[C@@H](C)O3)ncn1-c1ccc(Cl)cc1-2 [Compound 294] | < 0.099 µM
COCc1nnc2n1Cc1c(C3=NC(c4ccccc4)CO3)ncn1-c1ccc(Cl)cc1-2 (centres unmarked) [Compound 242] | < 0.099 µM
COCc1nnc2n1Cc1c(C#Cc3ccccc3)ncn1-c1ccc(Cl)cc1-2 [Compound 285] | < 0.099 µM
N#Cc1ncn2c1Cn1c(COc3ccccc3)nnc1-c1cc(Cl)ccc1-2 [Compound 197] | < 0.099 µM
C#Cc1ncn2c1Cn1c(COCC)nnc1-c1cc(Cl)ccc1-2 [Compound 261] | < 0.099 µM
COCc1nnc2n1Cc1c(C3=N[C@H](C)CO3)ncn1-c1ccc(Cl)cc1-2 [Compound 282] | < 0.099 µM
CC(C)c1nc(-c2ncn3c2Cc2c(C(=O)c4ccc(F)cc4)nnn2-c2ccc(F)cc2-3)no1 [Compound 230] | < 0.099 µM
COc1ccc2c(c1)-n1nnc(C)c1Cc1c(-c3nc(C(C)C)no3)ncn1-2 [Compound 277] | < 0.099 µM
COCc1nnc2n1Cc1c(-c3nc(C(C)C)no3)ncn1-c1ccc(Cl)cc1-2 [Compound 206] | < 0.099 µM
FC(F)(F)COCc1nnc2n1Cc1c(C3=N[C@@H](c4ccccc4)CO3)ncn1-c1ccc(Cl)cc1-2 [Compound 304] | < 0.099 µM
C#Cc1ncn2c1Cc1c(C(=O)c3ccc(F)cc3)nnn1-c1cc(OC)ccc1-2 [Compound 218] | < 0.099 µM
CC(C)OCc1nnc2n1Cc1c(C3=N[C@H](c4ccccc4)CO3)ncn1-c1ccc(Cl)cc1-2 [Compound 268] | < 0.099 µM
CCOCc1nnc2n1Cc1c(C3=N[C@@H](c4ccccc4)CO3)ncn1-c1ccc(Cl)cc1-2 [Compound 275] | < 0.099 µM
COCc1nnc2n1Cc1c(Br)ncn1-c1ccc(Cl)cc1-2 [Compound 217] | < 0.099 µM
COc1ccc2c(c1)-n1nncc1Cc1c(C3=N[C@H](C)CO3)ncn1-2 [Compound 291] | < 0.099 µM
C#Cc1ccc2c(c1)-c1nnc(COC)n1Cc1c(C3=N[C@H](CC(C)C)CO3)ncn1-2 [Compound 280] | < 0.099 µM
COc1ccc2c(c1)-c1nnc(COc3ccccc3)n1Cc1c(Br)ncn1-2 [Compound 232] | < 0.099 µM
COCc1nnc2n1Cc1c(C3=NC[C@H](C)O3)ncn1-c1ccc(Cl)cc1-2 [Compound 295] | < 0.099 µM
CCOCc1nnc2n1Cc1c(C3=NC(C)CO3)ncn1-c1ccc(Cl)cc1-2 (centres unmarked) [Compound 259] | < 0.099 µM
C#CCNC(=O)c1ncn2c1Cn1c(COC)nnc1-c1cc(Cl)ccc1-2 [Compound 234] | > 1 µM
COc1ccc2c(c1)-n1nnc(Cc3cccc(Cl)c3)c1Cc1c(C#N)ncn1-2 [Compound 209] | < 0.099 µM
COCc1nnc2n1Cc1c(-c3nc(-c4ccccc4)co3)ncn1-c1ccc(Cl)cc1-2 [Compound 245] | < 0.099 µM

Compound | Ki
CC(C)OCc1nnc2n1Cc1c(-c3nc(-c4ccccc4)co3)ncn1-c1ccc(Cl)cc1-2 [Compound 276] | < 0.099 µM
COCc1nnc2n1Cc1c(-c3ncc(C)o3)ncn1-c1ccc(Cl)cc1-2 [Compound 296] | < 0.099 µM
COc1ccc2c(c1)-n1nncc1Cc1c(-c3nc(C)no3)ncn1-2 [Compound 258] | < 0.099 µM
CCOCc1nnc2n1Cc1c(C3=NC(c4ccccc4)CO3)ncn1-c1ccc(Cl)cc1-2 (centres unmarked) [Compound 260] | < 0.099 µM
C#Cc1ncn2c1Cn1c(COC(C)C)nnc1-c1cc(Cl)ccc1-2 [Compound 288] | < 0.099 µM
CCOC(=O)c1ncn2c1Cc1c(C)nnn1-c1cc(C)ccc1-2 [Compound 102] | < 0.099 µM
COc1ccc2c(c1)-n1nnc(Cc3ccccc3Cl)c1Cc1c(C#N)ncn1-2 [Compound 208] | < 0.099 µM
CC(C)OCc1nnc2n1Cc1c(C3=N[C@@H](c4ccccc4)CO3)ncn1-c1ccc(Cl)cc1-2 [Compound 270] | < 0.099 µM
COCc1nnc2n1Cc1c(C3=N[C@H](c4ccccc4)CO3)ncn1-c1ccc(Cl)cc1-2 [Compound 263] | < 0.099 µM
C#Cc1ncn2c1Cn1c(COc3ccccc3)nnc1-c1cc(OC)ccc1-2 [Compound 236] | < 0.099 µM
C#Cc1ccc2c(c1)-c1nnc(COC)n1Cc1c(-c3nc(-c4ccccc4)co3)ncn1-2 [Compound 302] | < 0.099 µM
C#Cc1ncn2c1Cn1c(COc3cccnc3)nnc1-c1cc(OC)ccc1-2 [Compound 241] | < 0.099 µM
COc1ccc2c(c1)-n1nncc1Cc1c(C3=N[C@@H](c4ccccc4)CO3)ncn1-2 [Compound 289] | < 0.099 µM
CCOC(=O)c1ncn2c1Cc1c(Cc3ccccc3Cl)nnn1-c1cc(C)ccc1-2 [Compound 54] | < 0.099 µM
COc1ccc2c(c1)-n1nnc(COc3ccccc3F)c1Cc1c(C#N)ncn1-2 [Compound 223] | < 0.099 µM
COCc1nnc2n1Cc1c(-c3cc(C)no3)ncn1-c1ccc(Cl)cc1-2 [Compound 233] | < 0.099 µM
CCOCc1nnc2n1Cc1c(Br)ncn1-c1ccc(Cl)cc1-2 [Compound 216] | < 0.099 µM
C#Cc1ccc2c(c1)-c1nnc(COC)n1Cc1c(C3=N[C@@H](c4ccccc4)CO3)ncn1-2 [Compound 301] | < 0.099 µM
N#Cc1ncn2c1Cc1c(COc3cccc(F)c3)nnn1-c1cc(Cl)ccc1-2 [Compound 227] | < 0.099 µM
COCc1nnc2n1Cc1c(-c3nc(C)co3)ncn1-c1ccc(Cl)cc1-2 [Compound 244] | < 0.099 µM
COc1ccc2c(c1)-c1nnc(COc3cccnc3)n1Cc1c(Br)ncn1-2 [Compound 235] | < 0.099 µM
CCOC(=O)c1ncn2c1Cc1c(Cc3ccccc3)nnn1-c1cc(C)ccc1-2 [Compound 101] | < 0.099 µM
Cc1cccc(C)c1OCc1nnc2n1Cc1c(-c3noc(C(C)C)n3)ncn1-c1ccc(F)cc1-2 [Compound 190] | < 0.099 µM

Molecular target: T2, GABAA receptors (α5β2γ2) (Homo sapiens, UniProt P18507+P31644)
T2 construct: expressed in transfected cells
Experiment: Positive allosteric modulator activity: potentiation of EC20 GABA current in oocytes
Format: cell-based
Details: read-out: GABA α5 functional potentiation
Procedure: On day 1, 1 ng/32 nL of GABAA α5β2γ2 cDNA was injected into one oocyte. Test starts on day 2. The cDNA injected to the oocytes was a mix of alpha, beta and gamma, their ratio is 1:1:10 (by weight) and the total weight of the mixed 3 subunits to be injected in one oocyte was 1 ng in 32 nl volume. The injected oocytes can also be tested on day 3. In such case, the cDNA amount injected to the oocytes should be reduced by 20%.
1). 8 oocytes were placed in 8 chambers of OpusXpress and superfused with Modified Barth's Saline (MBS) at 3 mL/min. Glass electrodes back-filled with 3M KCl (0.5-3 megaohms) were used.
1). Repeat the above steps 1), 2) and 3) in the control test.
2). […] Divide Itest by IGABA to obtain potentiation (%).
3). Discard all tested oocytes, new oocytes were used and the above steps 1) and 2) were repeated to test second concentration of the same compound. Each oocyte was used for only one concentration test for a single test compound. The steps were repeated for other test compounds.

T2 sequence (P31644 32-462): as the sequence (P31644 32-462) above
T2 sequence (P47870 25-512 partner limits assumed): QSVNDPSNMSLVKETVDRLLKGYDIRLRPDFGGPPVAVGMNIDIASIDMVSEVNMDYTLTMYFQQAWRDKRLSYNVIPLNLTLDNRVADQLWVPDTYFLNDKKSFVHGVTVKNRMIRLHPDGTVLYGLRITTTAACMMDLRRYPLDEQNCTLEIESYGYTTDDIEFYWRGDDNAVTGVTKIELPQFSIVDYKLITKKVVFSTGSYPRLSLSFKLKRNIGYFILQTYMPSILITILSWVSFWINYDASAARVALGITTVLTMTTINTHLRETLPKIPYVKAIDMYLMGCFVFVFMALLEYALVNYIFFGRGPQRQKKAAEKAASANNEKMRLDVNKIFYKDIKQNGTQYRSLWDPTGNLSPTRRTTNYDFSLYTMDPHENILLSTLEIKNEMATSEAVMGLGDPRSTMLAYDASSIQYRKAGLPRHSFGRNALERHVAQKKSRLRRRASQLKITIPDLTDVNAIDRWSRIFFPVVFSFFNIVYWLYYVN
T2 sequence (P18507 40-475): as the sequence (P18507 40-475) above

Compound | activation at 0.1 µM
COc1ccc2c(c1)-c1nnc(COc3ccccc3)n1Cc1c(C(=O)OC(C)C)ncn1-2 [Compound 120] | 20 to 49%
CCOC(=O)c1ncn2c1Cc1c(Cc3cccnc3)nnn1-c1cc(C)ccc1-2 [Compound 111] | 20 to 49%
COCc1nnc2n1Cc1c(-c3nc(C)no3)ncn1-c1ccc(OC)cc1-2 [Compound 128] | 20 to 49%
CCOC(=O)c1ncn2c1Cn1c(COc3ccccc3)nnc1-c1cc(OC)ccc1-2 [Compound 55] | 20 to 49%
COc1ccc2c(c1)-c1nnc(COc3ccccc3)n1Cc1c(-c3noc(C(C)C)n3)ncn1-2 [Compound 171] | > 50%
COc1ccc2c(c1)-c1nnc(COc3ccccc3)n1Cc1c(-c3noc(C)n3)ncn1-2 [Compound 162] | 20 to 49%
Cc1nc(-c2ncn3c2Cc2c(C)nnn2-c2cc(F)ccc2-3)no1 [Compound 145] | > 50%
CCOC(=O)c1ncn2c1Cc1c(CN3CCCC3)nnn1-c1cc(OC)ccc1-2 [Compound 48] | 20 to 49%
CCOC(=O)c1ncn2c1Cc1c(C)nnn1-c1cc(OC)ccc1-2 [Compound 1] | 20 to 49%
Cc1nnn2c1Cc1c(-c3noc(C(C)C)n3)ncn1-c1ccc(F)cc1-2 [Compound 149] | > 50%
Cc1nnn2c1Cc1c(C(=O)OC(C)C)ncn1-c1ccccc1-2 [Compound 153] | 20 to 49%
COc1ccc2c(c1)-c1nnc(COc3cccc4ccccc34)n1Cc1c(-c3noc(C(C)C)n3)ncn1-2 [Compound 177] | > 50%
Cc1noc(-c2ncn3c2Cc2c(C)nnn2-c2cc(F)ccc2-3)n1 [Compound 110] | 20 to 49%
COc1ccc2c(c1)-c1nnc(COc3ccc(F)cc3)n1Cc1c(-c3noc(C)n3)ncn1-2 [Compound 163] | 20 to 49%
CCOC(=O)c1ncn2c1Cc1c(COc3ccccc3)nnn1-c1cc(OC)ccc1-2 [Compound 9] | 20 to 49%
Cc1noc(-c2ncn3c2Cc2c(Cc4ccccc4)nnn2-c2cc(F)ccc2-3)n1 [Compound 109] | 20 to 49%

— patent US11312721B2 (priority 2015, dated 2022)
